Reference: PubChem BioAssay AID1259407 (Chemical Carcinogenesis Research Information System (CCRIS), 2018)
The source made the active and inactive calls. The rule behind the calls is not given here.

System: CCRIS mutagenicity, Ames/micronucleus/aberration tests
Assay: CCRIS mutagenicity studies
[1] = Test System: AMES SALMONELLA TYPHIMURIUM, Strain/Indicator: TA98, Metabolic Activation: NONE, Method: STANDARD PLATE
[2] = Test System: AMES SALMONELLA TYPHIMURIUM, Strain/Indicator: TA98, Metabolic Activation: RAT, LIVER, S-9, AROCLOR 1254, Method: PREINCUBATION
[3] = Test System: AMES SALMONELLA TYPHIMURIUM, Strain/Indicator: TA98, Metabolic Activation: RAT, LIVER, S-9, AROCLOR 1254, Method: STANDARD PLATE
[4] = Test System: AMES SALMONELLA TYPHIMURIUM, Strain/Indicator: TA100, Metabolic Activation: NONE, Method: STANDARD PLATE
[5] = Test System: AMES SALMONELLA TYPHIMURIUM, Strain/Indicator: TA100, Metabolic Activation: RAT, LIVER, S-9, AROCLOR 1254, Method: STANDARD PLATE
[6] = Test System: AMES SALMONELLA TYPHIMURIUM, Strain/Indicator: TA98, Metabolic Activation: NONE, Method: PREINCUBATION
[7] = Test System: AMES SALMONELLA TYPHIMURIUM, Strain/Indicator: TA100, Metabolic Activation: NONE, Method: PREINCUBATION
[8] = Test System: AMES SALMONELLA TYPHIMURIUM, Strain/Indicator: TA100, Metabolic Activation: RAT, LIVER, S-9, AROCLOR 1254, Method: PREINCUBATION
[9] = Test System: AMES SALMONELLA TYPHIMURIUM, Strain/Indicator: TA97, Metabolic Activation: NONE, Method: STANDARD PLATE

Nc1ccc(N=Nc2ccc(N)cc2)cc1
mutagenic call (Test System: AMES SALMONELLA TYPHIMURIUM, Strain/Indicator: TA98, Metabolic Activation: HAMSTER, LIVER, S-9, AROCLOR 1254, Method: STANDARD PLATE): active; positive
mutagenic call [1]: inactive; negative
mutagenic call [2]: active; positive
mutagenic call [3]: active; positive
mutagenic call [4]: inactive; negative
mutagenic call [5]: inactive; negative
mutagenic call (Test System: AMES SALMONELLA TYPHIMURIUM, Strain/Indicator: TA1535, Metabolic Activation: NONE, Method: STANDARD PLATE): inactive; negative
mutagenic call (Test System: AMES SALMONELLA TYPHIMURIUM, Strain/Indicator: TA1535, Metabolic Activation: RAT, LIVER, S-9, AROCLOR 1254, Method: STANDARD PLATE): inactive; negative
mutagenic call (Test System: AMES SALMONELLA TYPHIMURIUM, Strain/Indicator: TA1537, Metabolic Activation: NONE, Method: STANDARD PLATE): inactive; negative
mutagenic call (Test System: AMES SALMONELLA TYPHIMURIUM, Strain/Indicator: TA1537, Metabolic Activation: RAT, LIVER, S-9, AROCLOR 1254, Method: STANDARD PLATE): inactive; negative
mutagenic call (Test System: AMES SALMONELLA TYPHIMURIUM, Strain/Indicator: TA1538, Metabolic Activation: NONE, Method: STANDARD PLATE): inactive; negative
mutagenic call (Test System: AMES SALMONELLA TYPHIMURIUM, Strain/Indicator: TA1538, Metabolic Activation: RAT, LIVER, S-9, AROCLOR 1254, Method: STANDARD PLATE): active; positive

C=CC(=O)NC(C)(C)CC(C)=O
mutagenic call (Test System: AMES SALMONELLA TYPHIMURIUM, Strain/Indicator: TA98, Metabolic Activation: HAMSTER, LIVER, S-9, AROCLOR 1254, Method: PREINCUBATION): inactive; negative
mutagenic call [6]: inactive; negative
mutagenic call [2]: inactive; negative
mutagenic call (Test System: AMES SALMONELLA TYPHIMURIUM, Strain/Indicator: TA100, Metabolic Activation: HAMSTER, LIVER, S-9, AROCLOR 1254, Method: PREINCUBATION): inactive; negative
mutagenic call [7]: inactive; negative
mutagenic call [8]: inactive; negative
mutagenic call (Test System: AMES SALMONELLA TYPHIMURIUM, Strain/Indicator: TA1535, Metabolic Activation: HAMSTER, LIVER, S-9, AROCLOR 1254, Method: PREINCUBATION): inactive; negative
mutagenic call (Test System: AMES SALMONELLA TYPHIMURIUM, Strain/Indicator: TA1535, Metabolic Activation: NONE, Method: PREINCUBATION): inactive; negative
mutagenic call (Test System: AMES SALMONELLA TYPHIMURIUM, Strain/Indicator: TA1535, Metabolic Activation: RAT, LIVER, S-9, AROCLOR 1254, Method: PREINCUBATION): inactive; negative
mutagenic call (Test System: AMES SALMONELLA TYPHIMURIUM, Strain/Indicator: TA1537, Metabolic Activation: HAMSTER, LIVER, S-9, AROCLOR 1254, Method: PREINCUBATION): inactive; negative
mutagenic call (Test System: AMES SALMONELLA TYPHIMURIUM, Strain/Indicator: TA1537, Metabolic Activation: NONE, Method: PREINCUBATION): inactive; negative
mutagenic call (Test System: AMES SALMONELLA TYPHIMURIUM, Strain/Indicator: TA1537, Metabolic Activation: RAT, LIVER, S-9, AROCLOR 1254, Method: PREINCUBATION): inactive; negative

Nc1ncnc2c1ncn2[C@@H]1O[C@H](CO)C[C@@H]1F
mutagenic call (Test System: Mouse lymphoma, Strain/Indicator: L5178Y (tk+/tk-), Metabolic Activation: None, Method: Suspension/plate): inactive; negative
mutagenic call (Test System: Mouse lymphoma, Strain/Indicator: L5178Y (tk+/tk-), Metabolic Activation: Rat, Liver, S-9, Aroclor 1254, Method: Suspension/plate): active; equivocal (previous revaluation positive)

Cn1c(N)nc2ccc3ncccc3c21
mutagenic call [2]: active; positive
mutagenic call [8]: active; positive

CN(C)c1ccc(C(=N)c2ccc(N(C)C)cc2)cc1
mutagenic call [9]: inactive; negative
mutagenic call (Test System: AMES SALMONELLA TYPHIMURIUM, Strain/Indicator: TA97, Metabolic Activation: RAT, LIVER, S-9, AROCLOR 1254, Method: STANDARD PLATE): inactive; negative
mutagenic call (Test System: AMES SALMONELLA TYPHIMURIUM, Strain/Indicator: TA98, Metabolic Activation: HAMSTER, LIVER, S-9, AROCLOR 1254 (30%), Method: PREINCUBATION): active; positive
mutagenic call [6]: inactive; negative
mutagenic call [1]: inactive; negative
mutagenic call (Test System: AMES SALMONELLA TYPHIMURIUM, Strain/Indicator: TA98, Metabolic Activation: RAT, LIVER, S-9, AROCLOR 1254 (30%), Method: PREINCUBATION): active; positive
mutagenic call [3]: inactive; negative
mutagenic call (Test System: AMES SALMONELLA TYPHIMURIUM, Strain/Indicator: TA100, Metabolic Activation: HAMSTER, LIVER, S-9, AROCLOR 1254 (30%), Method: PREINCUBATION): inactive; negative
mutagenic call [7]: inactive; negative
mutagenic call [4]: inactive; negative
mutagenic call (Test System: AMES SALMONELLA TYPHIMURIUM, Strain/Indicator: TA100, Metabolic Activation: RAT, LIVER, S-9, AROCLOR 1254 (30%), Method: PREINCUBATION): inactive; negative
mutagenic call [5]: inactive; negative
mutagenic call (Test System: AMES SALMONELLA TYPHIMURIUM, Strain/Indicator: TA1538, Metabolic Activation: HAMSTER, LIVER, S-9, AROCLOR 1254 (30%), Method: PREINCUBATION): active; positive
mutagenic call (Test System: AMES SALMONELLA TYPHIMURIUM, Strain/Indicator: TA1538, Metabolic Activation: RAT, LIVER, S-9, AROCLOR 1254 (30%), Method: PREINCUBATION): active; positive
mutagenic call (Test System: CHINESE HAMSTER V-79, Strain/Indicator: V-79/6-THIOGUANINE, Metabolic Activation: NONE, Method: SUSPENSION/PLATE): inactive; negative
mutagenic call (Test System: CHINESE HAMSTER V-79, Strain/Indicator: V-79/6-THIOGUANINE, Metabolic Activation: RAT, LIVER, S-9, PHENOBARBITAL AND BETA-NAPHTHOFLAVONE, Method: SUSPENSION/PLATE): active; positive

C=C1C(=O)O[C@@H]2[C@H]1CC[C@H](C)[C@@H]1C=CC(=O)[C@@]21C
mutagenic call [1]: inactive; negative
mutagenic call [3]: inactive; negative
mutagenic call [4]: inactive; negative
mutagenic call [5]: inactive; negative

Cc1ccccc1N=Nc1ccc(N)c(C)c1N
mutagenic call (Test System: AMES SALMONELLA TYPHIMURIUM, Strain/Indicator: TA100, Metabolic Activation: HUMAN, LIVER, S-9, Method: PREINCUBATION): active; positive
mutagenic call (Test System: AMES SALMONELLA TYPHIMURIUM, Strain/Indicator: TA100, Metabolic Activation: RAT, LIVER, S-9, BETA-NAPHTHOFLAVONE, Method: PREINCUBATION): active; positive
mutagenic call (Test System: AMES SALMONELLA TYPHIMURIUM, Strain/Indicator: TA100, Metabolic Activation: RAT, LIVER, S-9, PHENOBARBITAL, Method: PREINCUBATION): active; positive
mutagenic call (Test System: AMES SALMONELLA TYPHIMURIUM, Strain/Indicator: TA100, Metabolic Activation: RAT, LIVER, S-9, Method: PREINCUBATION): active; positive
mutagenic call (Test System: UDS RODENT HEPATOCYTES, Strain/Indicator: THY INCORP, Metabolic Activation: NONE, Method: AUTORADIOGRAPHY): active; positive

COCC(=O)N(c1c(C)cccc1C)C(C)C(=O)OC (configuration not stated)
mutagenic call (End Point: In vitro micronucleus, Test System: Human lymphocytes, Metabolic Activation: None): inactive; negative (positive only at 50 ug/ml dose)
mutagenic call (End Point: In vivo micronucleus, Test System: Bone marrow polychromatic erythrocytes, Species: Rat, Strain/Sex: Wistar/Male, Route: Oral): active; positive (at high dose)

CCc1cc(Cc2cc(C)c(N)c(CC)c2)cc(C)c1N
mutagenic call [3]: inactive; negative
mutagenic call [5]: inactive; negative

CCN(C(C)OC(C)=O)[N+](=O)[O-] (configuration not stated)
mutagenic call (Test System: E. COLI, Strain/Indicator: WP2 (HCR-), Metabolic Activation: NONE): active; positive

O=[N+]([O-])c1ccc(/C=N/n2cccn2)o1
mutagenic call [9]: active; positive
mutagenic call [1]: active; positive
mutagenic call [4]: active; positive
mutagenic call (Test System: AMES SALMONELLA TYPHIMURIUM, Strain/Indicator: TA102, Metabolic Activation: NONE, Method: STANDARD PLATE): active; positive
